Test results published in the NIST ThermoML archive (doi:10.1021/je1007197).
“And” between values parts separate entries of the source, which are not always exact repeats. Equal values may be shown once. Numbers after ± are expanded uncertainties.

Details: Liquid, Hot wire method

Question: Which results are given for `CCCCOCCO` [2-butoxyethan-1-ol]?
Answer: thermal conductivity (304.15 K, 100 kPa): 0.1529 ± 0.001 W/m/K and 0.1533 ± 0.001 W/m/K; thermal conductivity (304.15 K, 16400 kPa): 0.1579 ± 0.001 W/m/K; thermal conductivity (304.15 K, 27300 kPa): 0.1612 ± 0.001 W/m/K; thermal conductivity (304.15 K, 41800 kPa): 0.1646 ± 0.001 W/m/K; thermal conductivity (304.15 K, 56100 kPa): 0.1689 ± 0.0011 W/m/K; thermal conductivity (304.15 K, 70200 kPa): 0.1722 ± 0.0011 W/m/K; thermal conductivity (304.15 K, 79000 kPa): 0.174 ± 0.0011 W/m/K; thermal conductivity (304.15 K, 83500 kPa): 0.1749 ± 0.0011 W/m/K; thermal conductivity (304.15 K, 98200 kPa): 0.1785 ± 0.0011 W/m/K; thermal conductivity (304.15 K, 112200 kPa): 0.182 ± 0.0011 W/m/K; thermal conductivity (304.15 K, 124100 kPa): 0.1836 ± 0.0011 W/m/K; thermal conductivity (304.15 K, 140100 kPa): 0.187 ± 0.0012 W/m/K; thermal conductivity (304.15 K, 149200 kPa): 0.1885 ± 0.0012 W/m/K; thermal conductivity (321.15 K, 100 kPa): 0.1497 ± 0.0009 W/m/K and 0.1496 ± 0.0009 W/m/K; thermal conductivity (321.15 K, 16400 kPa): 0.1548 ± 0.001 W/m/K; thermal conductivity (321.15 K, 27300 kPa): 0.1585 ± 0.001 W/m/K; thermal conductivity (321.15 K, 41800 kPa): 0.1628 ± 0.001 W/m/K; thermal conductivity (321.15 K, 56100 kPa): 0.1665 ± 0.001 W/m/K; thermal conductivity (321.15 K, 70200 kPa): 0.1701 ± 0.0011 W/m/K; thermal conductivity (321.15 K, 84200 kPa): 0.1739 ± 0.0011 W/m/K; thermal conductivity (321.15 K, 98200 kPa): 0.177 ± 0.0011 W/m/K; thermal conductivity (321.15 K, 112200 kPa): 0.18 ± 0.0011 W/m/K; thermal conductivity (321.15 K, 126200 kPa): 0.183 ± 0.0011 W/m/K; thermal conductivity (321.15 K, 134900 kPa): 0.1851 ± 0.0011 W/m/K; thermal conductivity (321.15 K, 150600 kPa): 0.1879 ± 0.0012 W/m/K; thermal conductivity (338.15 K, 100 kPa): 0.1461 ± 0.0009 W/m/K and 0.1463 ± 0.0009 W/m/K; thermal conductivity (338.15 K, 16400 kPa): 0.1518 ± 0.001 W/m/K; thermal conductivity (338.15 K, 27300 kPa): 0.1555 ± 0.001 W/m/K; thermal conductivity (338.15 K, 41800 kPa): 0.1601 ± 0.001 W/m/K; thermal conductivity (338.15 K, 56100 kPa): 0.164 ± 0.001 W/m/K; thermal conductivity (338.15 K, 70200 kPa): 0.1677 ± 0.001 W/m/K; thermal conductivity (338.15 K, 84200 kPa): 0.1717 ± 0.0011 W/m/K; thermal conductivity (338.15 K, 98200 kPa): 0.1751 ± 0.0011 W/m/K; thermal conductivity (338.15 K, 108700 kPa): 0.1775 ± 0.0011 W/m/K; thermal conductivity (338.15 K, 123400 kPa): 0.1807 ± 0.0011 W/m/K; thermal conductivity (338.15 K, 140100 kPa): 0.1844 ± 0.0011 W/m/K
